Data published in patent US20070128217A1 (priority 2003, published 2007).

How the values were obtained:
[1] = system: rabbit serum obtained by immunizing a rabbit with the SARS-CoV strain Frankfurt 1; assay type: binding; set-up: Binding of a rabbit serum to linear peptides / Binding of a rabbit serum to looped peptides / Rabbit serum linear peptides / Rabbit serum looped peptides / Binding of a rabbit serum to linear peptides of protein N of SARS-CoV Urbani (Rabbit serum linear peptides) / Binding of a rabbit serum to looped/cyclic peptides of protein N of SARS-CoV Urbani (Rabbit serum looped peptides): unit not given here
[2] = system: antibodies in sera from SARS patients (sera 1a, 1b, 2, 6, 37, 62, London, SARS-yellow, SARS-green); assay type: binding, human; set-up: Binding of serum 6 to linear peptides of protein X1 of SARS-CoV Urbani / Binding of serum 37 to linear peptides of protein X1 of SARS-CoV Urbani / Binding of serum 6 to looped/cyclic peptide (PEPSCAN-ELISA) / Binding of serum 37 to looped/cyclic peptide (PEPSCAN-ELISA) / Binding of serum 37 to looped/cyclic peptides of protein X1 of SARS-CoV Urbani / Binding of serum 6 to linear peptides of protein X2 / Binding of serum 37 to linear peptides of protein X2 / Binding of serum 37 to looped/cyclic peptides of protein X2 of SARS-CoV Urbani / Binding of serum 6 to linear peptides of protein M of SARS-CoV Urbani / Binding of serum 37 to linear peptides of protein M of SARS-CoV Urbani / Binding of serum 6 to looped/cyclic peptides of protein M of SARS-CoV Urbani / Binding of serum 37 to looped/cyclic peptides of protein M of SARS-CoV Urbani / Binding of serum 6 to linear peptides of protein X3 of SARS-CoV Urbani / Binding of serum 37 to linear peptides of protein X3 of SARS-CoV Urbani / Binding of serum 37 to looped/cyclic peptides of protein X3 of SARS-CoV Urbani / Binding of serum 6 to linear peptides of protein X4 of SARS-CoV Urbani / Binding of serum 37 to linear peptides of protein X4 of SARS-CoV Urbani / Binding of serum 37 to looped/cyclic peptides of protein X4 of SARS-CoV Urbani / Binding of serum 6 to linear peptides of protein X5 of SARS-CoV Urbani / Binding of serum 37 to linear peptides of protein X5 of SARS-CoV Urbani / Binding of serum 37 to looped/cyclic peptides of protein X5 of SARS-CoV Urbani / Binding of serum 6 to linear peptides of protein N of SARS-CoV Urbani / Binding of serum 37 to linear peptides of protein N of SARS-CoV Urbani / Binding of serum 6 to linear peptide (PEPSCAN-ELISA) / Binding of serum 1a to looped/cyclic peptides of protein N of SARS-CoV Urbani / Binding of serum 1b to looped/cyclic peptides of protein N of SARS-CoV Urbani / Binding of serum 2 to looped/cyclic peptides of protein N of SARS-CoV Urbani / Binding of serum 6 to looped/cyclic peptides of protein N of SARS-CoV Urbani / Binding of serum 37 to looped/cyclic peptides of protein N of SARS-CoV Urbani / Binding of serum 62 to looped/cyclic peptides of protein N of SARS-CoV Urbani / Binding of serum London to looped/cyclic peptides of protein N of SARS-CoV Urbani / Binding of serum SARS-green to looped/cyclic peptides of protein N of SARS-CoV Urbani: unit not given here
[3] = system: control sera (pooled serum of ten healthy LUMC hospital workers; commercial negative donor pooled serum from the Dutch bloodbank); assay type: binding, human; set-up: Binding of Control serum LUMC to linear peptides / Binding of Control serum Blood-bank to linear peptides / Binding of Control serum LUMC to looped peptides / Binding of Control Serum Blood-Bank to Looped peptides / Binding of Control serum LUMC to linear peptides of the protein M of SARS-CoV Urbani / Binding of Control serum Blood-bank to linear peptides of the protein M of SARS-CoV Urbani / Binding of Control serum LUMC to looped peptides of the protein M of SARS-CoV Urbani / Binding of Control Serum Blood-Bank to Looped peptides of the protein M of SARS-CoV Urbani: unit not given here

## ARSVSPKLFIRQEEV
[1]
  Rabbit serum linear peptides: 0.3
  Rabbit serum looped peptides: 0.2
[2]
  Binding of serum 1a to linear peptides of protein X4 of SARS-CoV Urbani: 0.7
  Binding of serum 1a to looped/cyclic peptides of protein X4 of SARS-CoV Urbani: 0.8
  Binding of serum 1b to linear peptides of protein X4 of SARS-CoV Urbani: 0.6
  Binding of serum 1b to looped/cyclic peptides of protein X4 of SARS-CoV Urbani: 0.5
  Binding of serum 2 to linear peptides of protein X4 of SARS-CoV Urbani: 0.5
  Binding of serum 2 to looped/cyclic peptides of protein X4 of SARS-CoV Urbani: 0.7
  Binding of serum 6 to linear peptides of protein X4 of SARS-CoV Urbani: 0.6
  Binding of serum 6 to looped/cyclic peptides of protein X4 of SARS-CoV Urbani: 0.5
  Binding of serum 37 to linear peptides of protein X4 of SARS-CoV Urbani: 0.7
  Binding of serum 37 to looped/cyclic peptides of protein X4 of SARS-CoV Urbani: 0.7
  Binding of serum 62 to linear peptides of protein X4 of SARS-CoV Urbani: 0.7
  Binding of serum 62 to looped/cyclic peptides of protein X4 of SARS-CoV Urbani: 0.6
  Binding of serum London to linear peptides of protein X4 of SARS-CoV Urbani: 0.7
  Binding of serum London to looped/cyclic peptides of protein X4 of SARS-CoV Urbani: 0.3
  Binding of serum SARS-green to linear peptides of protein X4 of SARS-CoV Urbani: 0.6
  Binding of serum SARS-green to looped/cyclic peptides of protein X4 of SARS-CoV Urbani: 0.6
  Binding of serum SARS-yellow to linear peptides of protein X4 of SARS-CoV Urbani: 0.1
  Binding of serum SARS-yellow to looped/cyclic peptides of protein X4 of SARS-CoV Urbani: 0.5
[3]
  Binding of Control Serum Blood-Bank to Looped peptides: 0.7
  Binding of Control serum Blood-bank to linear peptides: 0.7
  Binding of Control serum LUMC to linear peptides: 0.6
  Binding of Control serum LUMC to looped peptides: 0.7

## ARTRSMWSFNPETNI
[1]
  Rabbit serum linear peptides: 0.2
  Rabbit serum looped peptides: 0.3
[2]
  Binding of serum 1a to linear peptides of protein M of SARS-CoV Urbani: 0.9
  Binding of serum 1a to looped/cyclic peptides of protein M of SARS-CoV Urbani: 0.7
  Binding of serum 1b to linear peptides of protein M of SARS-CoV Urbani: 0.8
  Binding of serum 1b to looped/cyclic peptides of protein M of SARS-CoV Urbani: 0.1
  Binding of serum 2 to linear peptides of protein M of SARS-CoV Urbani: 0.6
  Binding of serum 2 to looped/cyclic peptides of protein M of SARS-CoV Urbani: 0.9
  Binding of serum 6 to linear peptides of protein M of SARS-CoV Urbani: 0.7
  Binding of serum 6 to looped/cyclic peptides of protein M of SARS-CoV Urbani: 0.6
  Binding of serum 37 to linear peptides of protein M of SARS-CoV Urbani: 0.6
  Binding of serum 37 to looped/cyclic peptides of protein M of SARS-CoV Urbani: 0.8
  Binding of serum 62 to linear peptides of protein M of SARS-CoV Urbani: 0.5
  Binding of serum 62 to looped/cyclic peptides of protein M of SARS-CoV Urbani: 0.8
  Binding of serum London to linear peptides of protein M of SARS-CoV Urbani: 0.4
  Binding of serum London to looped/cyclic peptides of protein M of SARS-CoV Urbani: 0.2
  Binding of serum SARS-green to linear peptides of protein M of SARS-CoV Urbani: 0.7
  Binding of serum SARS-green to looped/cyclic peptides of protein M of SARS-CoV Urbani: 0.1
  Binding of serum SARS-yellow to linear peptides of protein M of SARS-CoV Urbani: 0.3
  Binding of serum SARS-yellow to looped/cyclic peptides of protein M of SARS-CoV Urbani: 0.7
[3]
  Binding of Control Serum Blood-Bank to Looped peptides of the protein M of SARS-CoV Urbani: 0.6
  Binding of Control serum Blood-bank to linear peptides of the protein M of SARS-CoV Urbani: 0.7
  Binding of Control serum LUMC to linear peptides of the protein M of SARS-CoV Urbani: 0.9
  Binding of Control serum LUMC to looped peptides of the protein M of SARS-CoV Urbani: 0.7

## ATATIPLQASLPFGW
[1]
  Binding of a rabbit serum to linear peptides: 0.1
  Binding of a rabbit serum to looped peptides: 0.6
[2]
  Binding of serum 1a to linear peptides of protein X1 of SARS-CoV Urbani: 0.9
  Binding of serum 1a to looped/cyclic peptide (PEPSCAN-ELISA): 0.6
  Binding of serum 1b to linear peptides of protein X1 of SARS-CoV Urbani: 0.7
  Binding of serum 1b to looped/cyclic peptide (PEPSCAN-ELISA): 0.5
  Binding of serum 2 to linear peptides of protein X1 of SARS-CoV Urbani: 0.7
  Binding of serum 2 to looped/cyclic peptide (PEPSCAN-ELISA): 0.5
  Binding of serum 6 to linear peptides of protein X1 of SARS-CoV Urbani: 0.7
  Binding of serum 6 to looped/cyclic peptide (PEPSCAN-ELISA): 0.5
  Binding of serum 37 to linear peptides of protein X1 of SARS-CoV Urbani: 0.7
  Binding of serum 37 to looped/cyclic peptide (PEPSCAN-ELISA): 0.7
  Binding of serum 62 to linear peptides of protein X1 of SARS-CoV Urbani: 0.8
  Binding of serum 62 to looped/cyclic peptide (PEPSCAN-ELISA): 0.7
  Binding of serum London to linear peptides of protein X1 of SARS-CoV Urbani: 0.4
  Binding of serum London to looped/cyclic peptide (PEPSCAN-ELISA): 0.3
  Binding of serum SARS-green to linear peptides of protein X1 of SARS-CoV Urbani: 0.4
  Binding of serum SARS-green to looped/cyclic peptide (PEPSCAN-ELISA): 0.3
  Binding of serum SARS-yellow to linear peptides of protein X1 of SARS-CoV Urbani: 0.5
  Binding of serum SARS-yellow to looped/cyclic peptide (PEPSCAN-ELISA): 0.4
[3]
  Binding of Control Serum Blood-Bank to Looped peptides: 0.8
  Binding of Control serum Blood-bank to linear peptides: 0.9
  Binding of Control serum LUMC to linear peptides: 0.7
  Binding of Control serum LUMC to looped peptides: 0.7

## ATIPLQASLPFGWLV
[1]
  Binding of a rabbit serum to linear peptides: 0.1
  Binding of a rabbit serum to looped peptides: 0.5
[2]
  Binding of serum 1a to linear peptides of protein X1 of SARS-CoV Urbani: 0.7
  Binding of serum 1a to looped/cyclic peptide (PEPSCAN-ELISA): 0.6
  Binding of serum 1b to linear peptides of protein X1 of SARS-CoV Urbani: 0.5
  Binding of serum 1b to looped/cyclic peptide (PEPSCAN-ELISA): 0.5
  Binding of serum 2 to linear peptides of protein X1 of SARS-CoV Urbani: 0.6
  Binding of serum 2 to looped/cyclic peptide (PEPSCAN-ELISA): 0.6
  Binding of serum 6 to linear peptides of protein X1 of SARS-CoV Urbani: 0.6
  Binding of serum 6 to looped/cyclic peptide (PEPSCAN-ELISA): 0.4
  Binding of serum 37 to linear peptides of protein X1 of SARS-CoV Urbani: 0.7
  Binding of serum 37 to looped/cyclic peptide (PEPSCAN-ELISA): 0.7
  Binding of serum 62 to linear peptides of protein X1 of SARS-CoV Urbani: 0.7
  Binding of serum 62 to looped/cyclic peptide (PEPSCAN-ELISA): 0.7
  Binding of serum London to linear peptides of protein X1 of SARS-CoV Urbani: 0.3
  Binding of serum London to looped/cyclic peptide (PEPSCAN-ELISA): 0.3
  Binding of serum SARS-green to linear peptides of protein X1 of SARS-CoV Urbani: 0.2
  Binding of serum SARS-green to looped/cyclic peptide (PEPSCAN-ELISA): 0.4
  Binding of serum SARS-yellow to linear peptides of protein X1 of SARS-CoV Urbani: 0.3
  Binding of serum SARS-yellow to looped/cyclic peptide (PEPSCAN-ELISA): 0.3
[3]
  Binding of Control Serum Blood-Bank to Looped peptides: 0.7
  Binding of Control serum Blood-bank to linear peptides: 0.8
  Binding of Control serum LUMC to linear peptides: 0.5
  Binding of Control serum LUMC to looped peptides: 0.7

## ATSRTLSYYKLGASQ
[1]
  Rabbit serum linear peptides: 0.6
  Rabbit serum looped peptides: 0.4
[2]
  Binding of serum 1a to linear peptides of protein M of SARS-CoV Urbani: 0.7
  Binding of serum 1a to looped/cyclic peptides of protein M of SARS-CoV Urbani: 0.8
  Binding of serum 1b to linear peptides of protein M of SARS-CoV Urbani: 0.5
  Binding of serum 1b to looped/cyclic peptides of protein M of SARS-CoV Urbani: 0.2
  Binding of serum 2 to linear peptides of protein M of SARS-CoV Urbani: 0.7
  Binding of serum 2 to looped/cyclic peptides of protein M of SARS-CoV Urbani: 0.6
  Binding of serum 6 to linear peptides of protein M of SARS-CoV Urbani: 0.3
  Binding of serum 6 to looped/cyclic peptides of protein M of SARS-CoV Urbani: 0.8
  Binding of serum 37 to linear peptides of protein M of SARS-CoV Urbani: 0.8
  Binding of serum 37 to looped/cyclic peptides of protein M of SARS-CoV Urbani: 0.6
  Binding of serum 62 to linear peptides of protein M of SARS-CoV Urbani: 0.7
  Binding of serum 62 to looped/cyclic peptides of protein M of SARS-CoV Urbani: 0.5
  Binding of serum London to linear peptides of protein M of SARS-CoV Urbani: 0.3
  Binding of serum London to looped/cyclic peptides of protein M of SARS-CoV Urbani: 0.3
  Binding of serum SARS-green to linear peptides of protein M of SARS-CoV Urbani: 0.2
  Binding of serum SARS-green to looped/cyclic peptides of protein M of SARS-CoV Urbani: 0.3
  Binding of serum SARS-yellow to linear peptides of protein M of SARS-CoV Urbani: 0.1
  Binding of serum SARS-yellow to looped/cyclic peptides of protein M of SARS-CoV Urbani: 0.7
[3]
  Binding of Control Serum Blood-Bank to Looped peptides of the protein M of SARS-CoV Urbani: 0.6
  Binding of Control serum Blood-bank to linear peptides of the protein M of SARS-CoV Urbani: 0.7
  Binding of Control serum LUMC to linear peptides of the protein M of SARS-CoV Urbani: 0.3
  Binding of Control serum LUMC to looped peptides of the protein M of SARS-CoV Urbani: 0.6
